Measured values as given in patent US6809208B2, “3-Arylbenzofuranones with electron-withdrawing substituents as stabilizers” (Ciba Specialty Chemicals Corporation, priority 2000, dated 2004).

What was measured:
[1] = Stabilization of multiple-extruded polypropylene at high temperature; set-up: unit not given here; conditions: stabilizer 0.100% by weight, measured at 230° C./2.16 kg
Description: This blend is then extruded in an extruder having a cylinder diameter of 20 mm and a length of 400 mm at 100 rpm, the 3 heating zones being adjusted to the following temperatures: 280, 320, 340° C. The extrudate is cooled by drawing it through a water bath and is then granulated. This granulate is repeatedly extruded. […] A substantial increase in the melt index denotes pronounced chain degradation, i.e. poor stabilization.

[2] = Stabilization of polycarbonate (oven ageing at 135° C., yellowness index and transmission); conditions: 0.05% stabilizer
Description: This mixture is then extruded in a Schwabenthan extruder at a maximum of 280° C. The polymer string is then granulated. Using an injection moulding machine, plates having a layer thickness of 2 mm are then moulded from the granulate so obtained at a maximum of 300° C. […] Low YI values denote little discoloration, high YI values high discoloration of the patterns. […] The results are compiled in Tables 17 and 18.

[3] = Stabilization of polycarbonate (time at 135° C. until YI = 20); conditions: 0.05% stabilizer; without stabilizer 1560
Description: 1.0 kg of a polycarbonate powder which has been dried for 8 hours at 120° C. in a vacuum drying oven (Lexan®145, of General Electric) is charged with the stabilizers listed in Table 19 and is mixed for 2 minutes in a Henschel mixer. This mixture is then extruded in a Schwabenthan extruder at a maximum of 280° C. The polymer string is then granulated. Using an injection moulding machine, plates having a layer thickness of 2 mm are then moulded from the granulate so obtained at a maximum of 300° C. These plates are then aged in a circulating air oven at 135° C., the time in hours until the yellowness index (YI) reaches a value of 20 according to ASTM D 1925-70 being measured. […]

[4] = Stabilization of multiple-extruded polypropylene; conditions: 0.05% of compound; heating zones 260, 270, 280° C.; measured at 230° C./2.16 kg; without compound 17.5
Description: 1.3 kg of polypropylene powder (Profax 6501), which has been prestabilized with 0.025% of Irganox®1076 (n-octadecyl 3-[3,5-di-tert-butyl-4-hydroxyphenyl]propionate) (melt index 3.2 g/10 min, measured at 230° C./2.16 kg) are blended with 0.05% of Irganox®1010 (pentaerythritol tetrakis[3-(3,5-di-tert-butyl-4-hydroxyphenyl)propionate]), 0.05% of calcium stearate, 0.03% of DHT 4A® (Kyowa Chemical Industry Co., Ltd., [Mg4.5Al2(OH)13CO3.3.5H2O]) and 0.05% of compound of Table 4. This blend is then extruded in an extruder having a cylinder diameter of 20 mm and a length of 400 mm at 100 rpm, the 3 heating zones being adjusted to the following temperatures: 260, 270, 280° C. The extrudate is cooled by drawing it through a water bath and is then granulated. This granulate is repeatedly extruded. After 3 extrusions, the melt index is measured (at 230° C./2.16 kg). A substantial increase in the melt index denotes pronounced chain degradation, i.e. poor stabilization.

[5] = Stabilization of polyethylene during processing (Brabender plastograph); conditions: 0.05 part compound and 0.05 part Irganox 1010 per 100 parts polyethylene; 220° C., 50 rpm; without compound 9.7
Description: 100 parts of polyethylene powder (Lupolen®5260 Z) are blended with 0.05 part of Irganox®1010 (pentaerythritol tetrakis[3-(3,5-di-tert-butyl-4-hydroxyphenyl)propionate]) and 0.05 part of a compound of Table 5 and the blend is kneaded in a Brabender plastograph at 220° C. and 50 rpm. During this time the kneading resistance is recorded continuously as torque. In the course of the kneading time the polymer begins to crosslink after prolonged constancy, as can be determined by the rapid increase in torque. The time taken until a marked increase in torque is shown in Table 5 as a measure of the stabilizing action. The longer this time is the better the stabilizing action.

[6] = Discoloration of powder coatings based on a carboxy-functional polyester cured in electric and gas ovens; conditions: total 0.60% stabilizers rel. to components 1 to 5
Description: To prepare the powder coating composition based on a carboxy-functional polyester, components 1 to 6 (formulation without additives) or components 1 to 7 (formulation containing the stabilizers) are employed in the sequence indicated (cf. Table 13).
The components weighed out in this way are mixed using a planetary stirrer. The mixture is then extruded on a prism extruder at 300 revolutions/minute and at 100° C. and is rolled out. The powder coating composition is coarsely comminuted using a bench cutter and is ground in a Retsch ZM-1 ultracentrifugal mill with a 0.75 mm annular-perforation screen at 15,000 revolutions/minute. Finally, the powder is passed through a 30 μm screen on a centrifugal screening machine.
The finished powder coating composition is sprayed electrostatically to a coat thickness of 70 μm onto aluminium panels using an ESB-Wagner corona cup gun at 60 kV. Some of the coated panels are cured at 180° C. for 90 minutes in an electric oven. The remaining coated panels are cured at 180° C. for 45 minutes in a gas oven with an NO2 content of 20 ppm. The yellowness index (YI) of the samples is determined in accordance with ASTM D 1925-70. Low YI values denote little discoloration, high YI values denote severe discoloration of the samples.

[7] = Stabilization of polycarbonate (yellowness index of extruded granulate); conditions: 0.05% stabilizer; granulate after extrusion at a maximum of 280° C.; without stabilizer 10.3
Description: 1.0 kg of a polycarbonate powder which has been dried for 8 hours at 120° C. in a vacuum drying oven (Lexan®145, of General Electric) is charged with the stabilizers listed in Table 22 and is then mixed for 2 minutes in a Henschel mixer. This mixture is then extruded in a Schwabenthan extruder at a maximum of 280° C. The polymer string is then granulated. The granulate so obtained is packed into 1 cm thick polystyrene boxes and the yellowness index (YI) is determined according to ASTM D 1925-70. Low YI values denote little discoloration, high YI values high discoloration of the samples. […]

[8] = Light-colored SBR-vulcanisate, ozone atmosphere for 48 hours: crack formation; set-up: key: grade 0: Grade 0 denotes no cracks; grade 1 denotes narrow flat cracks; grade 2 denotes moderately broad, moderately deep cracks, clearly visible; grade 3 denotes broad and deep cracks; conditions: 1.0 phr stabilizer, ozone 50 pphm, 40° C., dynamic elongation, without stabilizer grade 1-2
Description: (§1) 100 parts by weight of Cariflex®S-1502 (styrene/butadiene rubber, Shell) are processed at 60° C., in a mixing mill, with 30.0 parts by weight of Kronos®CL 220 [titanium dioxide (pigment), Kronos Titan GmbH], 30.0 parts by weight of Aktisil®MM [kaolin (filler), Hoffmann Mineral, Neuburg/Donau], 5.0 parts by weight of Naftolen®N 401 [plasticizer, Metallgesellschaft], 10.0 parts by weight of zinc oxide [vulcanization activator], 2.0 parts by weight of stearic acid [vulcanization activator], 2.0 parts by weight of sulfur [vulcanizing agent], 1.0 part by weight of Vulkacit®MOZ [vulcanisation accelerator, Bayer], 0.25 part by weight of Vulkacit®Thiuram [vulcanization accelerator, Bayer] and 1.0 part by weight of the stabilizer to be tested according to Table 24, to form a homogeneous mixture, the vulcanization system (sulfur, Vulkacit®MOZ and Vulkacit®Thiuram) not being added until the end of the mixing process. The mixture is vulcanized in electrical vulcanization presses at 150° C. until T95 is reached in the rheometer curves to form elastomer plates 2 mm thick, 21 cm long and 8.0 cm wide.
Some of the elastomer plates so obtained are tested for the action of ozone according to the ASTM standard D 3395-86 while subject to dynamic elongation. […] The test plates are then assessed for crack formation according to ASTM D 3395-86. […]

[9] = Light-colored SBR-vulcanisate (Example 22): ΔL-color after 3 weeks in diffuse daylight; conditions: 1.0 phr stabilizer; 3 weeks at room temperature in diffuse daylight; scale 0 to 100, 100 = no discoloration; without stabilizer 94
Description: as §1
(§2) The remaining elastomer plates are stored for 3 weeks at room temperature in a standard laboratory atmosphere in diffuse daylight. The ΔL-color of those plates is then determined according to DIN 6167, which corresponds to a scale of from 0 to 100. No discoloration is indicated by a value of 100.

[10] = Light-colored SBR-vulcanisate, ozone atmosphere for 96 hours: crack formation; set-up: key: grade 0: Grade 0 denotes no cracks; grade 1 denotes narrow flat cracks; grade 2 denotes moderately broad, moderately deep cracks, clearly visible; grade 3 denotes broad and deep cracks; conditions: 2.0 phr stabilizer, ozone 50 pphm, 40° C., dynamic elongation, without stabilizer grade 2
Description: as §1, with “[plasticiser,” for “[plasticizer,”, “[vulcanization” for “[vulcanisation”, “[…],” for “Bayer] and 1.0 part by weight of the stabilizer to be tested according to Table 24,”
Some of the elastomer plates so obtained are tested for the action of ozone according to the ASTM standard D 3395-86 while subject to dynamic elongation. In this test the plates are first stored for 30 days in a standard atmosphere [23/50 SN-ISO 291]. Test specimens measuring 20 cm by 1 cm are then punched out and exposed to an ozone atmosphere for 96 hours (ozone content: 50 pphm; temperature: 40° C.; humidity: 50% rel.; elongation: 0 to 25%; elongation rate: 0.5 Hz; number of load cycles: approximately 173 000). The test plates are then assessed for crack formation according to ASTM D 3395-86. Grade 0 denotes no cracks; grade 1 denotes narrow flat cracks; grade 2 denotes moderately broad, moderately deep cracks, clearly visible; grade 3 denotes broad and deep cracks. The lower the grade number, the better the stabilization of the elastomer plates.

[11] = Light-colored SBR-vulcanisate (Example 23): ΔL-color after 3 weeks in diffuse daylight; conditions: 2.0 phr stabilizer; 3 weeks at room temperature in diffuse daylight; scale 0 to 100, 100 = no discoloration; without stabilizer 97
Description: as §1, with “[plasticiser,” for “[plasticizer,”, “[vulcanization” for “[vulcanisation”, “[…],” for “Bayer] and 1.0 part by weight of the stabilizer to be tested according to Table 24,”
as §2

CC(C)(C)c1ccc(OP(Oc2ccc(C(C)(C)C)cc2C(C)(C)C)Oc2ccc(C(C)(C)C)cc2C(C)(C)C)c(C(C)(C)C)c1 [Irgafos ®168, tris(2,4-di-tert-butylphenyl)phosphite, reference compound]
Melt index after 5 extrusions ([1]; 280° C.): 9.7
Melt index after 5 extrusions ([1]; 320° C.): 43.8
Melt index after 5 extrusions ([1]; 340° C.): 80.1
Yellowness index prior to oven-ageing ([2]; 2 mm plates, ASTM D 1925-70): 3.4
Transmission in % prior to oven-aging ([2]; at 450 nm): 84.7%
Transmission in % after 2000 hours at 135° C. ([2]; at 450 nm, without stabilizer 76.4): 77.8%
Yellowness index after 2000 hours at 135° C. ([2]; circulating air oven, without stabilizer 25.0): 23.5
Time in hours at 135° C. to YI = 20 [3]: 2000 h

CCCCCCCCOC(=O)c1ccc(C2C(=O)Oc3c2cc(C(C)(C)C)cc3C(C)(C)C)cc1 (stereo not drawn) [Compound (110), 5,7-di-tert-butyl-3-(4-n-octyloxycarbonylphenyl)-3H-benzofuran-2-one]
Melt index after 3 extrusions [4]: 4.7
Time until increase in torque [5]: 27.5 min
Yellowness index after 90 minutes (ASTM D 1925-70) ([6]; Curing for 45 minutes in a gas oven at 180° C., NO2 content 20 ppm, without stabilizer 4.2): 3.4
Yellowness index after 90 minutes (ASTM D 1925-70) ([6]; Curing for 90 minutes in an electric oven at 180° C., without stabilizer 3.1): 2.7

Cc1cc(OP(Oc2cc(C)c(C(C)(C)C)cc2C(C)(C)C)c2ccc(-c3ccc(P(Oc4cc(C)c(C(C)(C)C)cc4C(C)(C)C)Oc4cc(C)c(C(C)(C)C)cc4C(C)(C)C)cc3)cc2)c(C(C)(C)C)cc1C(C)(C)C [GSY ®P101]
Yellowness index [7]: 5.1

CC(C)(C)c1cc2c(c(C(C)(C)C)c1)OC(=O)C2c1cc(C#N)cc(C#N)c1 (stereo not drawn) [Compound (108)]
Crack formation according to ASTM D 3395-86 [8]: grade 0-1
ΔL-color according to DIN 6167 [9]: 96
Crack formation according to ASTM D 3395-86 [10]: grade 1
ΔL-color according to DIN 6167 [11]: 95

CC(C)Nc1ccc(Nc2ccccc2)cc1 [Vulkanox ® 4010, 4-isopropylamino-diphenylamine, reference compound]
Crack formation according to ASTM D 3395-86 [8]: grade 0
ΔL-color according to DIN 6167 [9]: 70
Crack formation according to ASTM D 3395-86 [10]: grade 0
ΔL-color according to DIN 6167 [11]: 56
